Measured values taken from BindingDB's records for patent US12187709 (Genentech, 2025).

Experiments:
[1] = biological target: T1, E3 ubiquitin-protein ligase CBL (Homo sapiens, UniProt P22681); assay: Cbl-b and C-Cbl LCK Ub TR-FRET Assay
Description: 6 μL of detection mixture was added to all wells and briefly centrifuged before incubating for 20 min at room temperature. […] IC50 was generated using no LCK as the low control and DMSO as the high control.

[2] = biological target: T1, E3 ubiquitin-protein ligase CBL; assay: Multi-Point Chaser SPR Assay Variation
Description: (§1) Table 4: Chaser assay utilize a single cycle kinetics SPR experiment with a contact time of 120 seconds, a flow rate of 50 μl/min and a dissociation time of 450 seconds. […] The kd is measured independently by determining the percentage unoccupied compound binding site over time by measuring the binding of a chaser compound measured by SPR.Chaser binding was measured by a multicycle kinetics SPR experiment using a contact time of 20 seconds, a flow rate of 30 μl/min, and a dissociation time of 120 seconds. […] The % compound bound at a given time was determined by comparison to a single injection of chaser preceding the single cycle kinetics titration defined below.% Compound Bound=(1−(RUT/RUT0))*100

[3] = biological target: E3 ubiquitin-protein ligase CBL-B (Homo sapiens, UniProt Q13191); assay: Multi-Point Chaser SPR Assay Variation
Sequence of E3 ubiquitin-protein ligase CBL-B (Q13191 whole entry): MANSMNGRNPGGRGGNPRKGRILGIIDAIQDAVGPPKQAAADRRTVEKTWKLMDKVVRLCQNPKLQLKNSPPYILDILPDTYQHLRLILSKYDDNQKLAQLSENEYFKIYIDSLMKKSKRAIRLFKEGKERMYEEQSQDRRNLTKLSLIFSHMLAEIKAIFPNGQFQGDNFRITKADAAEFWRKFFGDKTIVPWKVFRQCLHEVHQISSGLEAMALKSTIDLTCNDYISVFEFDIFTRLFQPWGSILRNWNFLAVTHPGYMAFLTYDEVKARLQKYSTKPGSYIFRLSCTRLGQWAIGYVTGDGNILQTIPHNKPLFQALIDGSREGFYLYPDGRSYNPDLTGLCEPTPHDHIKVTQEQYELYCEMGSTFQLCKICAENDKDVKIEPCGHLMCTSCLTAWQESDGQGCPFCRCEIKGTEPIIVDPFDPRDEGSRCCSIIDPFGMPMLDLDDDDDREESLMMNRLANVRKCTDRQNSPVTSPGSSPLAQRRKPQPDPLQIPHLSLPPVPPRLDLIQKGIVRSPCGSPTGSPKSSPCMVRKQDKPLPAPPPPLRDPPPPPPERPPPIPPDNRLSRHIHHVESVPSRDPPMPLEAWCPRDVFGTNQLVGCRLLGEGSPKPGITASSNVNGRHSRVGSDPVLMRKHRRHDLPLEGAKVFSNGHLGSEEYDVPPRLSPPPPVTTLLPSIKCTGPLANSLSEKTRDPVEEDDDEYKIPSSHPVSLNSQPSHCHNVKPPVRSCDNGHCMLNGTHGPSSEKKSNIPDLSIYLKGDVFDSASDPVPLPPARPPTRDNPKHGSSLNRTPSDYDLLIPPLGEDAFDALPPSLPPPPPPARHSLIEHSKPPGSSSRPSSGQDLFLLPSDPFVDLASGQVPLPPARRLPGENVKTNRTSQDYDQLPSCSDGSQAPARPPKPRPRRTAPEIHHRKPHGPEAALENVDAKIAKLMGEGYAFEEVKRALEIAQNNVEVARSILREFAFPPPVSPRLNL
Description: as §1

In the case of `CO[C@@](c1cccc(N2Cc3c(cc(CNC4(C)CCC4)cc3C(F)(F)F)C2=O)c1)(c1nncn1C)C1CCC1` (single isomer, unassigned) [US12187709, Compound 118], the IC50 [1] is reported as no less than 20000 nM.

In the case of `Cn1cnnc1[C@]1(c2cc(NC3CCCCC3)nc(N3Cc4c(cc(CNC5(C)CCC5)cc4C(F)(F)F)C3=O)c2)C[C@@H](C)C1` [US12187709, Compound 50], the IC50 [1] is reported as 53 nM, the Kd [2] is reported as 20 nM and the Kd [3] is reported as 6.5 nM.

With `Cn1cnnc1[C@]1(c2cc(NC3CCCCC3)nc(N3Cc4c(cc(CNC5(C)CCC5)cc4C(F)(F)F)C3=O)c2)C[C@H](C)C1` [US12187709, Compound 51] the IC50 [1] was 61 nM.

Work on `Cn1cnnc1[C@]1(c2cc(NC3CCCC3)nc(N3Cc4c(cc(CNC5(C)CCC5)cc4C(F)(F)F)C3=O)c2)C[C@@H](C)C1` [US12187709, Compound 52] yielded an IC50 [1] of 9.4 nM, a Kd [2] of 11 nM and a Kd [3] of 0.95 nM.

`Cn1cnnc1[C@]1(c2cc(NC3CCCC3)nc(N3Cc4c(cc(CNC5(C)CCC5)cc4C(F)(F)F)C3=O)c2)C[C@H](C)C1` [US12187709, Compound 53] showed an IC50 [1] of 6.3 nM, a Kd [2] of 6.5 nM and a Kd [3] of 0.7 nM.

With `Cn1cnnc1[C@]1(c2cc(OC3CCCC3)nc(N3Cc4c(cc(CNC5(C)CCC5)cc4C(F)(F)F)C3=O)c2)C[C@H](C)C1` [US12187709, Compound 54] the IC50 [1] was 115 nM, the Kd [2] was 15 nM and the Kd [3] was 1.3 nM.

In the case of `Cn1cnnc1[C@]1(c2cc(OC3CCCC3)nc(N3Cc4c(cc(CNC5(C)CCC5)cc4C(F)(F)F)C3=O)c2)C[C@@H](C)C1` [US12187709, Compound 55], the IC50 [1] is reported as 9.4 nM.

`CC(=O)N1CC(c2cccc(N3Cc4c(cc(CNC5(C)CCC5)cc4C(F)(F)F)C3=O)c2)(c2nncn2C)C1` [US12187709, Compound 112] gave an IC50 [1] of no less than 20000 nM.
